Several values for one entry are separate records, joined by “and”; a condition that tells them apart may be missing. Equal entries are not always repeated. Where two headings read alike, the source gives them in different places.
Target: T1, canine TRPM8 (Canis lupus familiaris, UniProt Q1A7N1)
T1 construct: expressed in transfected cells
Experiment: In vitro canine TRPM8 functional assay (Ca2+-sensitive dye, FLIPR/FDSS, icilin activation)
Assay type: cell-based
Conditions: HEK293 cells expressing canine TRPM8, icilin activation; for % I (0.5 μM): 0.5 μM compound; for IC50: eight-point dose-response; for % I (1 μM): 1 μM compound; for % I (5 μM): 5 μM compound
In short: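 HEK293 cells stably expressing canine TRPM8, loaded with Calcium 3 dye, preincubated with compound for 5 min before icilin at a concentration giving ~80% maximal response. Ca2+ fluorescence by FLIPR or FDSS; basal-subtracted, normalized to % maximal response, quadruplicate wells, sigmoidal fit for EC50/IC50.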

[1] = HEK293, read-out: % I (1 μM), 1 μM compound
[2] = HEK293, 1 μM compound, read-out: % I (1 μM)

T1 sequence (Q1A7N1 1-1104): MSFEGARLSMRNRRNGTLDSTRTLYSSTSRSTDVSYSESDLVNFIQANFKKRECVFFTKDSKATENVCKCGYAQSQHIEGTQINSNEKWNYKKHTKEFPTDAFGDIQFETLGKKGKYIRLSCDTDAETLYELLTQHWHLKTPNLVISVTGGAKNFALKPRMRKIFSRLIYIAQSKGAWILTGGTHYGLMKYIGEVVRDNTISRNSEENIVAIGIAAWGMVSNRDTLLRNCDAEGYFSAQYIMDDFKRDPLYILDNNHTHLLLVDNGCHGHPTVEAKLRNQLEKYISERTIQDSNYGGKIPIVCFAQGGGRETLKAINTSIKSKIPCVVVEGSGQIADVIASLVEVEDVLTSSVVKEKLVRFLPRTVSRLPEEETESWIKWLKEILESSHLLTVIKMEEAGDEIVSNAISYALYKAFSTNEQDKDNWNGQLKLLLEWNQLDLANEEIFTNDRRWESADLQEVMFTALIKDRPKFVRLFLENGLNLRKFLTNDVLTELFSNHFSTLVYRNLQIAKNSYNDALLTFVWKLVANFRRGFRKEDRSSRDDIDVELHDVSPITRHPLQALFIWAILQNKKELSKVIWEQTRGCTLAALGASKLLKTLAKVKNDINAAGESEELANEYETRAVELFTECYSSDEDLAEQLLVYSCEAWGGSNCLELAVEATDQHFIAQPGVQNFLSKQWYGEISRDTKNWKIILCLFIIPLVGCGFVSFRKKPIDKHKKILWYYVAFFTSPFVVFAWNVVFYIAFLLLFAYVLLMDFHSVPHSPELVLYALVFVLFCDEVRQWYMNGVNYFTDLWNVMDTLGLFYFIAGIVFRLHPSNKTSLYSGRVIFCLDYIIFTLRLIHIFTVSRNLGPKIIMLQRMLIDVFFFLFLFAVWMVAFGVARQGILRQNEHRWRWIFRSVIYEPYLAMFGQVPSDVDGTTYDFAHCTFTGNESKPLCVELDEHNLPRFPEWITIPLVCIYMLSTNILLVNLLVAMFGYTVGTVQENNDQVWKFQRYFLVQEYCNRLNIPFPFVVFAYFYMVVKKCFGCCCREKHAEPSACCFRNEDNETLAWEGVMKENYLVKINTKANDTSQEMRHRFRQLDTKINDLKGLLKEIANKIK

Row | Compound | % I (0.5 μM) | IC50 (read-out: IC50) | other results
1 | CC(C)OP(=O)(OC(C)C)C(Cc1ccc(F)c(C(F)(F)F)c1)c1c(Br)c2ccccc2n1C(=O)OC(C)(C)C (centres unmarked) [Cpd 327, 3-Bromo-2-[1-(diisopropoxy-phosporyl)-2-(4-fluoro-3-trifluoromethyl-phenyl)-ethyl]-indole-1-carboxylic acid tert-butyl ester] | 44% | – | –
2 | CC(C)CCOP(=O)(OCCC(C)C)C(Cc1ccc(F)c(F)c1)c1sc2ccccc2c1Br (racemic) [Cpd 211] | 97% | 0.095 µM | –
3 | CCOP(=O)(OCC)C(Cc1ccc(C(F)(F)F)cc1)c1sc2ccccc2c1Cl (racemic) [Cpd 285] | 103% | 0.125 µM | –
4 | CCOP(=O)(OCC)C(Cc1ccc(Br)cc1)c1cc2ccccc2s1 (centres unmarked) [Cpd 70] | – | 0.35 µM | % I (1 μM): 82%; % I (5 μM): 99%
5 | CCOP(=O)(OCC)C(Cc1ccccc1OC)c1sc2ccccc2c1Br (centres unmarked) [Cpd 320] | 103% | 0.028 µM | –
6 | CC(C)OP(=O)(OC(C)C)C(Cc1ccc(F)c(F)c1)c1sc2cccc(F)c2c1Br (centres unmarked) [Cpd 221, [1-(3-Bromo-4-fluoro-benzo[b]thiophen-2-yl)-2-(3,4-difluoro-phenyl)-ethyl]-phosphonic acid diisopropyl ester] | – | 0.032 µM | inhibition at 0.5 µM (HEK293, 0.5 μM compound, read-out: % I (0.5 μM)): 102%
7 | CC(C)OP(=O)(OC(C)C)C(Cc1ccc(F)c(Cl)c1)c1sc2ccccc2c1Br (racemic) [Cpd 248] | 104% | 0.021 µM | –
8 | CCOP(=O)(OCC)C(Cc1cc(F)cc(C(F)(F)F)c1)c1sc2ccccc2c1C (centres unmarked) [Cpd 56] | – | 0.24 µM | % I (1 μM): 103%
9 | CC(C)OP(=O)(OC(C)C)C(Cc1cccc(Cl)c1)c1sc2ccccc2c1Br (racemic) [Cpd 166] | 102% | 0.018 µM and 0.014 µM | % I (1 μM): 103%
10 | CCOP(=O)(Cc1cc2ccccc2s1)OCc1ccccc1C (centres unmarked) [Cpd 104, Benzo[b]thiophen-2-ylmethyl-phosphonic acid ethyl ester 2-methyl-benzyl ester] | – | – | % I (5 μM): 99%; inhibition at 1 µM [1]: 53%; IC50 (IC50 (μM)): 0.96 µM
11 | CCOP(=O)(OCC)C(Cc1ccc(F)c(F)c1)c1c(C)c2ccccc2[s+]1[O-] (centres unmarked) [Cpd 118] | – | – | % I (1 μM): 23%
12 | COc1cc(CC(c2sc3ccccc3c2Br)P(=O)(OC(C)C)OC(C)C)ccc1F (racemic) [Cpd 157] | 103% and 98% | – | –
13 | CCOP(=O)(OCC)C(Cc1ccc(F)c(F)c1)c1sc2ccccc2c1-c1cccc(C(N)=O)c1 (racemic) [Cpd 218] | 79% | 0.483 µM | –
14 | CCOP(=O)(OCC)C(Cc1ccc(OC)cc1)c1sc2ccccc2c1Br (centres unmarked) [Cpd 321] | 102% | 0.043 µM | –
15 | CCOP(=O)(OCC)C(Cc1ccc(F)c(Cl)c1)c1sc2ccccc2c1Cl (racemic) [Cpd 297] | 103% | 0.04 µM | –
16 | COc1c(F)c(F)c(CC(c2sc3ccccc3c2Br)P(=O)(OC(C)C)OC(C)C)c(F)c1F (racemic) [Cpd 161] | 103% | 0.019 µM | –
17 | CCOP(=O)(OCC)C(Cc1ccc(F)cc1Cl)c1cc2ccccc2s1 (centres unmarked) [Cpd 98] | – | 0.71 µM | % I (1 μM): 79%
18 | CCOP(=O)(OCC)C(Cc1ccccc1F)c1cc2ccccc2s1 (centres unmarked) [Cpd 80] | – | 0.43 µM | % I (1 μM): 93%; % I (5 μM): 100%
19 | CC(C)OP(=O)(OC(C)C)C(Cc1c(Cl)cccc1Cl)c1sc2ccccc2c1Cl (centres unmarked) [Cpd 183] | 103% | 0.131 µM | –
20 | CC(C)OP(=O)(OC(C)C)C(Cc1ccc(S(=O)(=O)C(F)(F)F)cc1)c1sc2ccccc2c1Br (centres unmarked) [Cpd 263] | 103% | 0.022 µM | –
21 | CCOP(=O)(OCC)C(Cc1cc(C(F)(F)F)ccc1C(F)(F)F)c1sc2ccccc2c1C (centres unmarked) [Cpd 113] | – | – | % I (1 μM): 25%

Row | Compound | % I (0.5 μM) | IC50 (read-out: IC50) | other results
22 | CCOP(=O)(OCC)C(Cc1cccc(C(F)(F)F)c1)c1sc2ccccc2c1Br (centres unmarked) [Cpd 141] | 100% | 0.051 µM | –
23 | CC(C)OP(=O)(OC(C)C)C(Cc1cc(F)cc(C(F)(F)F)c1)c1sc2ccccc2c1Cl (racemic) [Cpd 169] | 104% | 0.096 µM | –
24 | CCOP(=O)(OCC)C(Cc1cccc(-c2ccncc2)c1)c1sc2ccccc2c1C (centres unmarked) [Cpd 72, [1-(3-Methyl-benzo[b]thiophen-2-yl)-2-(3-pyridin-4-yl-phenyl)-ethyl]-phosphonic acid diethyl ester] | – | – | inhibition at 1 µM [1]: 99%; IC50 (IC50 (μM)): 0.36 µM
25 | CCOP(=O)(OCC)C(Cc1cc2c(cc1Cl)OCO2)c1sc2ccccc2c1C (centres unmarked) [Cpd 71] | – | 0.36 µM | % I (1 μM): 98%
26 | CCOP(=O)(OCC)C(Cc1ccc(F)cc1C(F)(F)F)c1sc2ccccc2c1Br (racemic) [Cpd 245] | 103% | 0.124 µM | –
27 | CCOP(=O)(OCC)C(Cc1cccc(-c2ccccc2)c1)c1sc2ccccc2c1C (centres unmarked) [Cpd 77] | – | – | inhibition at 1 µM [1]: 98%; IC50 (IC50 (μM)): 0.41 µM
28 | CCOP(=O)(OCC)C(Cc1ccc(Cl)cc1)c1sc2ccccc2c1Cl (racemic) [Cpd 293] | 103% | 0.156 µM | –
29 | CCOP(=O)(OCC)C(Cc1ccccc1C(F)(F)F)c1cc2ccccc2s1 (centres unmarked) [Cpd 102] | – | 0.75 µM | % I (1 μM): 86%
30 | CC(C)OP(=O)(OC(C)C)C(Cc1ccccc1F)c1sc2ccccc2c1Br (centres unmarked) [Cpd 196] | – | 0.048 µM | % I (1 μM): 100%
31 | CCOP(=O)(OCC)C(Cc1ccccc1C(F)(F)F)c1sc2ccccc2c1Cl (racemic) [Cpd 279] | 97% | 0.291 µM | –
32 | CC(C)OP(=O)(OC(C)C)C(Cc1cc(F)cc(F)c1)c1cc2ccccc2s1 (centres unmarked) [Cpd 121] | – | 0.35 µM | % I (1 μM): 103%
33 | CCOP(=O)(Cc1cc2ccccc2s1)OCc1ccc(F)cc1 (centres unmarked) [Cpd 107] | – | 1.3 µM | % I (5 μM): 99%
34 | CC(C)OP(=O)(OC(C)C)C(Cc1cccc(SC(F)(F)F)c1)c1sc2ccccc2c1Br (centres unmarked) [Cpd 250] | 103% | 0.048 µM | –
35 | CCOP(=O)(OCC)C(Cc1cccc(OC(F)(F)F)c1)c1sc2ccccc2c1Cl (centres unmarked) [Cpd 270] | 102% | 0.202 µM | –
36 | CC(C)OP(=O)(OC(C)C)C(Br)(Cc1ccc(F)c(F)c1)c1sc2ccccc2c1Br (centres unmarked) [Cpd 93, [1-Bromo-1-(3-bromo-benzo[b]thiophen-2-yl)-2-(3,4-difluoro-phenyl)-ethyl]-phosphonic acid diisopropyl ester] | – | 0.58 µM | inhibition at 1 µM [2]: 80%
37 | Cc1ccc2sc(C(Cc3ccc(F)c(F)c3)P(=O)(OC(C)C)OC(C)C)c(C)c2c1 (centres unmarked) [Cpd 62, 2-(3,4-Difluoro-phenyl)-[1-(3,5-dimethyl-benzo[b]thiophen-2-yl)-ethyl]-phosphonic acid diisopropyl ester] | – | 0.29 µM | inhibition at 1 µM [2]: 95%
38 | CCOP(=O)(OCC)C(Cc1cc(F)cc(Cl)c1)c1sc2ccccc2c1Br (centres unmarked) [Cpd 259] | 103% | 0.023 µM | –
39 | CCCS(=O)(=O)n1c(C(Cc2ccc(F)c(C(F)(F)F)c2)P(=O)(OC(C)C)OC(C)C)c(Br)c2ccccc21 (centres unmarked) [Cpd 332] | 72% | – | –
40 | CCOP(=O)(OCC)C(Cc1cccc(Cl)c1F)c1sc2ccccc2c1Br (racemic) [Cpd 143] | 101% | 0.067 µM | –
41 | CCOP(=O)(OCC)C(Cc1ccccc1-c1ccccc1)c1sc2ccccc2c1C (centres unmarked) [Cpd 115] | – | – | % I (1 μM): 69%

— patent US20080287398A1, “COLD MENTHOL RECEPTOR-1 ANTAGONISTS” (priority 2007, published 2008)
